For the first assay, the target named is T1, PYL4 (Arabidopsis thaliana, UniProt O80920).
T1 construct: 6X-His; made in house; host or cells: E. coli BL21[DE3]pLysS
T1 sequence (O80920 1-207): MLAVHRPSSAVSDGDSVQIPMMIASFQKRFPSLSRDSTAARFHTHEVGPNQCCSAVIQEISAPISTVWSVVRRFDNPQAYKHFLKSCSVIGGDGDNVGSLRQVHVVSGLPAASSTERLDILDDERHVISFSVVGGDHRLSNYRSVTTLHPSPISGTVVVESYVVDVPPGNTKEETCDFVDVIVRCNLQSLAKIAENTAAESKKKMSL
T1 sequence (Q9CAJ0 23-511 partner): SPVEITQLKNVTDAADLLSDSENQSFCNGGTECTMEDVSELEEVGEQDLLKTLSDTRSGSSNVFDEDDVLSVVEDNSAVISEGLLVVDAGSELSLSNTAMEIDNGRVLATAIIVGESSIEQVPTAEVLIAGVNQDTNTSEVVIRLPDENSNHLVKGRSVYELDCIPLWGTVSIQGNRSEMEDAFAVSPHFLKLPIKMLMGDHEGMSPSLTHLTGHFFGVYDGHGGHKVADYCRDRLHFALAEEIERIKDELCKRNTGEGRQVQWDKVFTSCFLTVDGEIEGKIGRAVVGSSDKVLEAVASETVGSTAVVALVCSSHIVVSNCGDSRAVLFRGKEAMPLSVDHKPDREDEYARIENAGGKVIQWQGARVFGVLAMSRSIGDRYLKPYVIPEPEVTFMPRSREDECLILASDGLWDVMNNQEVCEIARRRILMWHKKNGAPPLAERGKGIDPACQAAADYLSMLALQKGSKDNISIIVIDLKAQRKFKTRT
Kind of assay: receptor-mediated PP2C (HAB1) inhibition in vitro assay. The following applies: compound at 25 μM; control without agonist = 100%. In kind it is biochemical. The protocol: (§1) A family of 62 structurally related N-acyl sulfonamides (Tables I-V) were tested for ABA agonist activity using multiple receptor-mediated PP2C inhibition in vitro assays (Park et al., 2009). […] The constructs utilized for protein expression have been previously described (Okamoto et al. 2013). For constructs encoding 6X-His-fusion proteins (all receptors except PYL11), the coding sequences were of the receptors were cloned in the vector pET28, expressed in BL21[DE3]pLysS E. coli host cells at 18° C. overnight, and subsequently purified from sonicated lysates using Ni-NTA agarose (Qiagen, USA), according to the manufacturer's instructions. PYL11 was constructed as a maltose binding protein fusion in the vector pMAL-c, expressed in BL21┌DE3┐pLysS host cells and purified using amylose resin (New England Biolabs) as described by the manufacturer. Recombinant GST-HAB1 was expressed and purified as described previously (Park et al., 2009). PP2C activity assays were conducted using the fluorogenic phosphatase substrate 4-methylumbelliferyl-phosphate. Recombinant receptors and HAB1 were used to examine ligand-induced PP2C inactivation in response to multiple test compounds. Enzyme inhibition assays were conducted using the following assay conditions: 50 nM GST-PP2C, 100 mM Tris-OAc (pH 7.9), 100 mM NaCl, 1 mM MnCl2, 1% β-mercaptoethanol. […] Because of this, the ratio of each receptor used in the PP2C-inhibitions assays was established empirically as the minimum fold-excess of receptor required to elicit maximal PP2C inhibition at a saturating ABA concentration (10 μM).
(§2) Based on this criterion, we used a ratio of 2:1 receptor in the assays described herein.
(§3) Using the above assay conditions, compounds were tested at 25 μM for agonist activity on PYL4, PYL5, PYL8 and PYL9. […] Consequently, a subset of the compounds was tested at multiple concentrations against 11 receptors so that IC50 values and receptor selectivity profiles could be examined. […] Thus, the N-acylsulfonamide agonists disclosed are selective for monomeric receptors.
(§4) Additional compounds were tested for biological activity following the procedures of Example 1 with minor modifications.
(§5) For these in vitro receptor assays, the compounds listed were tested in in vitro PP2C inhibition assays with 50 uM of the test compound except for ABA (10 uM). IC50s were calculated from dose curves, but only for selected compounds.
Regarding `CC1(C(=O)NS(=O)(=O)Cc2ccc(C#N)cc2)CCCc2ccccc21` (stereo not drawn) [Compound 61], the remaining activity at 25 µM came out at 91%.
For `CCC(CC)(C(=O)NS(=O)(=O)Cc1ccccc1C#N)c1ccccc1` [Compound 17], the PP2C Activity (25 μm) PYL4 is 85%.
As to `CC(C)(C(=O)NS(=O)(=O)Cc1ccccc1C#N)c1ccccc1` [Compound 1], the PP2C Activity (25 μm) PYL4 turned out to be 96%.
With `CC(C)(C(=O)NS(=O)(=O)Cc1ccc(F)cc1)c1ccccc1` [Compound 4], the PP2C Activity (25 μm) PYL4 came to 97%.
In turn, `CC(C)(C(=O)NS(=O)(=O)Cc1ccccc1)c1ccccc1` [Compound 5] registered a PP2C Activity (25 μm) PYL4 of 89%.

Another assay has as its target T2, PYL8 (Arabidopsis thaliana, UniProt Q9FGM1).
T2 construct: 6X-His; made in house; host or cells: E. coli BL21[DE3]pLysS
T2 sequence (Q9FGM1 1-188): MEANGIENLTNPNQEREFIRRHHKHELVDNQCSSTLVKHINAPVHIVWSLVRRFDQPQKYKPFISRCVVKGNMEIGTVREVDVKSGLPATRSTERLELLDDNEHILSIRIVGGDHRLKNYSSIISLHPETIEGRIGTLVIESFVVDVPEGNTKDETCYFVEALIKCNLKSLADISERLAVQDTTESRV
T2 sequence (Q9CAJ0 23-511 partner): T1 sequence (Q9CAJ0 23-511 partner)
Described as above. The following applies: compound at 25 μM; control without agonist = 100%. It counts as biochemical. The protocol:
as §1, §2, §3, §4, §5
`CC1(C(=O)NS(=O)(=O)Cc2ccc(C#N)cc2)CCCc2ccccc21` (stereo not drawn) [Compound 61] had a remaining activity at 25 µM of 75%.
Compound `CCC(CC)(C(=O)NS(=O)(=O)Cc1ccccc1C#N)c1ccccc1` [Compound 17] registered a PP2C Activity (25 μm) PYL8 of 95%.
For `CC(C)(C(=O)NS(=O)(=O)Cc1ccccc1C#N)c1ccccc1` [Compound 1], the PP2C Activity (25 μm) PYL8 was found to be 89%.
`CC(C)(C(=O)NS(=O)(=O)Cc1ccc(F)cc1)c1ccccc1` [Compound 4] came in with a PP2C Activity (25 μm) PYL8 of 59%.
For the compound `CC(C)(C(=O)NS(=O)(=O)Cc1ccccc1)c1ccccc1` [Compound 5], the PP2C Activity (25 μm) PYL8 is 83%.

The next assay deals with T3, PYL9 (Arabidopsis thaliana, UniProt Q84MC7).
T3 construct: 6X-His; made in house; host or cells: E. coli BL21[DE3]pLysS
T3 sequence (Q84MC7 1-187): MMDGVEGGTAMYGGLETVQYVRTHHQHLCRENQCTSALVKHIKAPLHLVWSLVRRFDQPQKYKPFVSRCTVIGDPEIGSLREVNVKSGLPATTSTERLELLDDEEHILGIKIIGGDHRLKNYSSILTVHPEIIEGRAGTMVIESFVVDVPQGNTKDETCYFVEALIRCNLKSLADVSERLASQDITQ
T3 sequence (Q9CAJ0 23-511 partner): T1 sequence (Q9CAJ0 23-511 partner)
The assay is described as above. It counts as biochemical. The following applies: compound at 25 μM; control without agonist = 100%. The protocol:
as §1, §2, §3, §4, §5
The compound `CC1(C(=O)NS(=O)(=O)Cc2ccc(C#N)cc2)CCCc2ccccc21` (stereo not drawn) [Compound 61] yielded a remaining activity at 25 µM of 68%.
Regarding `CCC(CC)(C(=O)NS(=O)(=O)Cc1ccccc1C#N)c1ccccc1` [Compound 17], the PP2C Activity (25 μm) PYL9 turned out to be 94%.
In turn, `CC(C)(C(=O)NS(=O)(=O)Cc1ccccc1C#N)c1ccccc1` [Compound 1] displayed a PP2C Activity (25 μm) PYL9 of 83%.
On the same count and under the same terms, to `CC(C)(C(=O)NS(=O)(=O)Cc1ccc(F)cc1)c1ccccc1` [Compound 4] belongs 36%.
Same read-out and setting: to `CC(C)(C(=O)NS(=O)(=O)Cc1ccccc1)c1ccccc1` [Compound 5] belongs 61%.

In the next assay the target is T4, PYL5 (Arabidopsis thaliana, UniProt Q9FLB1).
T4 construct: 6X-His; made in house; host or cells: E. coli BL21[DE3]pLysS
T4 sequence (Q9FLB1 1-203): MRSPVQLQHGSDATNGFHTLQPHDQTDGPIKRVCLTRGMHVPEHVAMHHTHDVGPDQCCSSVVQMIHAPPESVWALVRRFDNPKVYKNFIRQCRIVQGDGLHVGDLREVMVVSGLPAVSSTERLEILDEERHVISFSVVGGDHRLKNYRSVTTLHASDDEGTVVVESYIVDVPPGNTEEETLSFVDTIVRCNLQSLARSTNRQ
T4 sequence (Q9CAJ0 23-511 partner): T1 sequence (Q9CAJ0 23-511 partner)
Described as above. In kind it is biochemical. As to conditions: compound at 25 μM; control without agonist = 100%. Here is the method: as §1, §2, §3, §4, §5
Regarding `CC1(C(=O)NS(=O)(=O)Cc2ccc(C#N)cc2)CCCc2ccccc21` (stereo not drawn) [Compound 61], the remaining activity at 25 µM was found to be 16%.
Regarding `CCC(CC)(C(=O)NS(=O)(=O)Cc1ccccc1C#N)c1ccccc1` [Compound 17], the PP2C Activity (25 μm) PYL5 amounted to 96%.
Compound `CC(C)(C(=O)NS(=O)(=O)Cc1ccccc1C#N)c1ccccc1` [Compound 1] yielded a PP2C Activity (25 μm) PYL5 of 106%.
Turning to `CC(C)(C(=O)NS(=O)(=O)Cc1ccc(F)cc1)c1ccccc1` [Compound 4], the PP2C Activity (25 μm) PYL5 turned out to be 106%.
Still for that read-out and setting: then `CC(C)(C(=O)NS(=O)(=O)Cc1ccccc1)c1ccccc1` [Compound 5], with 86%.

The test system of a further assay is Arabidopsis seed germination and hypocotyl growth. Kind of assay: Arabidopsis seed germination and hypocotyl growth. In kind it is in vivo. As to conditions: Arabidopsis thaliana; Table VIII; tested at 10 or 50 μM; lowest inhibiting concentration; − = none; read-out: Hypocotyl Growth Inhibition. The protocol:
We germinated seeds from wild type on ½× strength Murashige and Skoog salts growth medium containing either 10 or 50 μM for all 62 compounds as well as 1 μM (+)-ABA and mock controls. […] To investigate if the any of the compounds are sufficient to control vegetative ABA responses, we treated three week old Arabidopsis plants with aqueous solutions containing 0.02% Silwet and either 50 μM of selected N-acylsulfonamides, 50 μM ABA or 0.1% DMSO (the carrier solvent for the compounds tested). The leaf temperatures were subsequently examined using a thermal imaging camera 24 hours after treatment. It is well known that ABA-induced guard cell closure reduces transpiration, which leads to increases in leaf temperatures. It has been estimated that a 1° C. increase in leaf temperature correlates with a decrease in transpiration rates by approximately 50% (Sirault et al., 2009). Since guard cell aperture is the primary determinant of transpiration rates, thermal imaging is a useful way to indirectly infer relative transpiration rates and, indirectly, relative degrees of guard cell opening at the whole plant level.
as §4
For the germination inhibition experiment, the compounds were tested at 10 and 50 uM. The amounts shown are the lowest of the two concentrations that either inhibited germination or hypocotyl growth in wells where seeds germinated.
For the germination test, the compounds were tested at 1, 5, 10, 25 and 50 uM. The amounts shown are the lowest of the concentrations that either inhibited germination or hypocotyl growth in the wells where seeds germinated.
Turning to `CC1(C(=O)NS(=O)(=O)Cc2ccc(C#N)cc2)CCCc2ccccc21` (stereo not drawn) [Compound 61], the minimal effective concentration worked out at 50 µM.

Still in this assay, the particulars now being: Germination Inhibition II; tested at 10 and 50 uM; lowest concentration that inhibited hypocotyl growth in wells where seeds germinated; − = none.
Consider `CC1(C(=O)NS(=O)(=O)Cc2ccc(C#N)cc2)CCCc2ccccc21` (stereo not drawn) [Compound 61], for which the “Hypocotyl Growth Inhibition” value turned out to be 50 µM.
As for `CCC(CC)(C(=O)NS(=O)(=O)Cc1ccccc1C#N)c1ccccc1` [Compound 17], the “Hypocotyl Growth Inhibition” value stood at 50 µM.
For the compound `CC(C)(C(=O)NS(=O)(=O)Cc1ccccc1C#N)c1ccccc1` [Compound 1], the “Hypocotyl Growth Inhibition” value was found to be 50 µM.
Still for that read-out and setting: then `CC(C)(C(=O)NS(=O)(=O)Cc1ccc(F)cc1)c1ccccc1` [Compound 4], with 50 µM.
Consider `CC(C)(C(=O)NS(=O)(=O)Cc1ccccc1)c1ccccc1` [Compound 5], for which the “Hypocotyl Growth Inhibition” value stood at 50 µM.

The assay is the same for the next values; noted with them: Table VIII; tested at 10 or 50 μM; lowest inhibiting concentration; − = none; read-out: Hypocotyl Growth Inhibition.
Take `CCC(CC)(C(=O)NS(=O)(=O)Cc1ccccc1C#N)c1ccccc1` [Compound 17]: the minimal effective concentration amounted to 50 µM.
As to `CC(C)(C(=O)NS(=O)(=O)Cc1ccccc1C#N)c1ccccc1` [Compound 1], the minimal effective concentration is recorded as 50 µM.
As for `CC(C)(C(=O)NS(=O)(=O)Cc1ccc(F)cc1)c1ccccc1` [Compound 4], the minimal effective concentration was determined as 50 µM.
As to `CC(C)(C(=O)NS(=O)(=O)Cc1ccccc1)c1ccccc1` [Compound 5], the minimal effective concentration turned out to be 50 µM.

For the origin of these results see patent publication US10757937B2, “Sulfonamides that activate ABA receptors” (The Regents of the University of California, priority 2014, dated 2020).
